Experimental data reported in patent publication US11905230B2, “Phenoxyacetic acid derivatives, preparation method thereof and use thereof as medicament” (CHINA PHARMACEUTICAL UNIVERSITY, priority 2017, dated 2024).

Key:
hGPR40 receptor = hGPR40 receptor (Homo sapiens (Human), UniProt O14842); test: agonistic activity on hGPR40-CHO stably transfected cells (Fluo-4 / FLIPR); assay type: cell-based
Procedure: Experimental example 1 The agonistic activity of the compounds of the present invention on hGPR40-CHO stably transfected cells
The present invention used the following method to determine the GPR40 agonistic activity of the compounds of the invention:
hGPR40-CHO stably transfected cells were seeded into a 96-well plate at a density of 3×10^4/well, and incubated overnight in a 37° C., 5% CO2 cell incubator; the medium was discarded, 100 μl of HBSS was added to each well, and 100 μl of Fluo-4 dye solution containing Probenecid was added and incubated at 37° C. for 90 min. After the incubation, the Fluo-4 dye solution was sucked out, 100 μl of HBSS buffer was added, and the dye was washed away; 100 μl of HBSS containing Probenecid was added to each well, and incubated at 37° C. for 10 min; different concentrations of drugs were added to each well of the 96-well plate and FLIPR (Molecular Devices) was used for readings according to the parameter setting table. The experimental results were analyzed.

PPARγ = PPARγ (Homo sapiens (Human), UniProt P37231); test: selective experiment of PPARγ agonism; assay type: cell-based; conditions: selectivity experiment; read-out: EC K (EC50) of PPARγ agonism
[1] = Evaluation of hepatotoxicity: serum ALT, AST and TBIL after 4 weeks of dosing; assay type: in vivo
Procedure: Experimental example 3 Evaluation of hepatotoxicity of the compounds of the present invention:
The test compounds were administered once a day for consecutive 4 weeks, blood was taken, and the contents of alanine aminotransferase (ALT), aspartate aminotransferase (AST), and total bilirubin (TBIL) were measured.

GPR120 = GPR120 (Homo sapiens (Human), UniProt Q5NUL3); test: selective experiment of GPR120 agonism; assay type: cell-based; conditions: selectivity experiment; read-out: EC K (EC50) of GPR120 agonism
normal mice = test: Oral glucose tolerance test (OGTT) in normal mice; assay type: in vivo, Kunming mice
Procedure: Experimental example 2 In vivo hypoglycemic activity of the compounds of the present invention can be determined by using an assay system as described below:
The mice were fasted for 12 hours before experiment and water was taken freely, each group was administrated by gavage, blood was taken from the tail, and the blood glucose level was measured (recorded as −30 min).

[2] = serum, once a day for consecutive 4 weeks, x ± SD, n = 6

Sequence of hGPR40 receptor (O14842 whole entry): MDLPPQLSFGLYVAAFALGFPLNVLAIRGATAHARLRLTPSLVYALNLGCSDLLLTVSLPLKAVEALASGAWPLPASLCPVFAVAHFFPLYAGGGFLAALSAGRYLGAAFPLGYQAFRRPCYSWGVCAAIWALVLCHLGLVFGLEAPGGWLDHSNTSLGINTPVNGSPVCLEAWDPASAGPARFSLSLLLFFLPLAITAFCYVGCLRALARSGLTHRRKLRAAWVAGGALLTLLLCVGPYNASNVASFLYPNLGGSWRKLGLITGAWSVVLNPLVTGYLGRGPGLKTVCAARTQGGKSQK
Sequence of GPR120 (Q5NUL3 whole entry, species assumed): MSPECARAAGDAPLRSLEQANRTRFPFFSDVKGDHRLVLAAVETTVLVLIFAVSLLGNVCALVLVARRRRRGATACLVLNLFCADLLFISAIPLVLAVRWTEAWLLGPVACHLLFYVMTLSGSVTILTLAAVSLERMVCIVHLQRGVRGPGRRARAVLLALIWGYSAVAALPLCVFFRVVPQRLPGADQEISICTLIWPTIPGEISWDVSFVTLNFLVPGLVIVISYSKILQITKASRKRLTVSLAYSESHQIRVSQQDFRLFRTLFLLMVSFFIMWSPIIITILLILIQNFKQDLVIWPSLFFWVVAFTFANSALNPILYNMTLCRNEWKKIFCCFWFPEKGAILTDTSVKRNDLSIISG
Sequence of PPARγ (P37231 whole entry, species assumed): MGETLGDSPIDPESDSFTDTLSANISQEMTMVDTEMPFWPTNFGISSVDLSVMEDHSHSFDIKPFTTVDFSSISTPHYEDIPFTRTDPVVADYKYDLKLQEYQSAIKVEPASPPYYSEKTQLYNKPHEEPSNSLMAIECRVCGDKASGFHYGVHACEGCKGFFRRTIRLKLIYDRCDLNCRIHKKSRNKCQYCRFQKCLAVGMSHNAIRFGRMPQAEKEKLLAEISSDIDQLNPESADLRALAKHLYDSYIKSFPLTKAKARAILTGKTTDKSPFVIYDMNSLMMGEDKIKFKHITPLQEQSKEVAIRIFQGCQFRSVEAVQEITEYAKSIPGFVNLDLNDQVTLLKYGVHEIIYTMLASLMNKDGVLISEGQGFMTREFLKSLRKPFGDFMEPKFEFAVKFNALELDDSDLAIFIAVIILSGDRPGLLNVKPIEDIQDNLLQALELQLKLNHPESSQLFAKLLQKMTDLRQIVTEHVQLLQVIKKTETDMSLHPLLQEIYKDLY

activation at 0.1 µM (hGPR40 receptor; 100 nM, relative to linoleic acid well): 87%
EC50 (hGPR40 receptor; mean ± SD of three determinations): 0.0048 ± 0.0035 µM
EC50 (PPARγ): 83 µM
EC50 (GPR120): 54 µM
Structure (SMILES): Cc1ccccc1-c1cccc(CNc2ccc(OCC(=O)O)c(F)c2)c1 [Compound I-3, 2-(4-((2′-methyl-[1,1′-biphenyl]-3-methylene)amino)-2-fluorophenoxy)acetic acid]
AST, ALT and TBIL compared with STZ (blank) group (in words) ([1]; 4 weeks of dosing): equivalent to the blank group
ALT (IU/L) [1, 2]: 51.23 ± 5.6 IU/L
AST (IU/L) [1, 2]: 103.27 ± 9.98 IU/L
TBIL (IU/L) [1, 2]: 2.55 ± 0.4 IU/L
effect on oral glucose tolerance in mice (in words) (normal mice; OGTT in normal mice, 20 mg/kg): significantly improve oral glucose tolerance
blood glucose level at 15 min (normal mice; OGTT, 20 mg/kg by gavage, 15 min after glucose load, n = 8, in mmol/L (unit assumed)): 7.13 ± 0.29
blood glucose level at 0 min (normal mice; OGTT, 20 mg/kg by gavage, 30 min after dosing, before glucose load, n = 8, in mmol/L (unit assumed)): 4.61 ± 0.63
blood glucose level at 30 min (normal mice; OGTT, 20 mg/kg by gavage, 30 min after glucose load, n = 8, in mmol/L (unit assumed)): 6.94 ± 0.38
blood glucose level at 60 min (normal mice; OGTT, 20 mg/kg by gavage, 60 min after glucose load, n = 8, in mmol/L (unit assumed)): 5.06 ± 0.23
blood glucose level at 120 min (normal mice; OGTT, 20 mg/kg by gavage, 120 min after glucose load, n = 8, in mmol/L (unit assumed)): 4.38 ± 0.29
